# Experimental data as given in paper PMC8242095, “Crystal structure of an archaeal CorB magnesium transporter” (Nature Communications, 2021).
# Where a chain is given by its changes, count along the chain named. Names and notes keep the numbering of the source.
# B1: MtCorBΔC_(Δloop) (Methanoculleus thermophilus CorB residues 1–322 Δ259–262) (domain or fragment, UniProt A0A1G8XA46 1-322, looked up)
# chain: MVVIDLLIVEVVLFIAALLFSGFFSSSEVALISITRAKVHALQSQGRKGAKALDTLKRSTDAIQITTLIGSTIANVAVASLATAIGITLYGNLGIAVGLVVAAVLVLVFGEIGPKMYASRYTEELALRVSRPILFFSKLLYPVLWVTDRIEQQFAFRPGVTEPVVTEEEIKEWIDVGEEEGTIEEEERDMLYSVLRFGDTTAREVMTPRVDVVMIEDTATLESALAIFNETGFSRIPVYHERIDNIVGLLNVKDVFSAQTSATIRDLMYEPYFIPESKKIDELLKELQVKKQHMAVVLDEYGSFAGIVTVEDMLEELV
# notes: CorB, Methanoculleus thermophilus, UniProt A0A1G8XA46, residues 1-322 (TMD, AHB and CBS-pair domain; CorC domain deleted) with the internal loop 259-262 deleted; Modelled: chain A residues 5-322, chain B residues 4-154 and 160-322; also called MtCorBΔC with an internal loop deletion; source: E. coli C41 (DE3), purified (Ni-NTA, SEC) in UDM
# B2: MtCorBΔC R235L (domain or fragment, Methanoculleus thermophilus, UniProt A0A1G8XA46 1-322, looked up)
# chain: MVVIDLLIVEVVLFIAALLFSGFFSSSEVALISITRAKVHALQSQGRKGAKALDTLKRSTDAIQITTLIGSTIANVAVASLATAIGITLYGNLGIAVGLVVAAVLVLVFGEIGPKMYASRYTEELALRVSRPILFFSKLLYPVLWVTDRIEQQFAFRPGVTEPVVTEEEIKEWIDVGEEEGTIEEEERDMLYSVLRFGDTTAREVMTPRVDVVMIEDTATLESALAIFNETGFSLIPVYHERIDNIVGLLNVKDVFSAVFRQQTSATIRDLMYEPYFIPESKKIDELLKELQVKKQHMAVVLDEYGSFAGIVTVEDMLEELV
# notes: CorB, Methanoculleus thermophilus, UniProt A0A1G8XA46, residues 1-322 (MtCorBΔC) with R235L; also called MtCorBΔC R235L mutant; apo conformation of MtCorBΔC; source: E. coli C41 (DE3), purified (Ni-NTA, SEC) in UDM
# B3: MtCorBΔC (residues 1–322) (domain or fragment, Methanoculleus thermophilus, UniProt A0A1G8XA46 1-322, looked up)
# chain: B2 chain with L235R
# notes: CorB, Methanoculleus thermophilus, UniProt A0A1G8XA46, residues 1-322 (CorC domain deleted); In nanodiscs of soybean polar extract and MSP1D1 (MtCorB:MSP1D1:lipid 2:10:550); filled nanodiscs were recovered on Ni-NTA; also called truncated MtCorB; MtCorB with a C-terminal CorC domain deletion; source: E. coli C41 (DE3), purified (Ni-NTA, SEC), reconstituted into MSP1D1 nanodiscs; not shown: His6, …
# B4: MtCorB (residues 1–426), Methanoculleus thermophilus CorB (natural protein, UniProt A0A1G8XA46 1-426, looked up)
# chain: MVVIDLLIVEVVLFIAALLFSGFFSSSEVALISITRAKVHALQSQGRKGAKALDTLKRSTDAIQITTLIGSTIANVAVASLATAIGITLYGNLGIAVGLVVAAVLVLVFGEIGPKMYASRYTEELALRVSRPILFFSKLLYPVLWVTDRIEQQFAFRPGVTEPVVTEEEIKEWIDVGEEEGTIEEEERDMLYSVLRFGDTTAREVMTPRVDVVMIEDTATLESALAIFNETGFSRIPVYHERIDNIVGLLNVKDVFSAVFRQQTSATIRDLMYEPYFIPESKKIDELLKELQVKKQHMAVVLDEYGSFAGIVTVEDMLEELVGEILDEFDEEEPEVQQLEEGIYLVDARTWVEHLNEDLDLNLPLMDTYESIGGLVIERLGHIPRRGEVVKIEESNVTLVVMQMRGRRIVKVKLIIGPPVPPTESR
# notes: CorB, Methanoculleus thermophilus, UniProt A0A1G8XA46, residues 1-426; In nanodiscs of soybean polar extract and MSP1D1; filled nanodiscs were recovered on Ni-NTA; also called full-length MtCorB; source: E. coli C41 (DE3), purified (Ni-NTA, SEC), reconstituted into MSP1D1 nanodiscs; not shown: His6, C-terminal, kept
# Experiments:
# MtCorBΔC = molecular target: T1, MtCorBΔC (Methanoculleus thermophilus, UniProt A0A1G8XA46); assay: isothermal titration calorimetry; assay type: binding
# T1 construct: gene corB; residues 1-322 (TMD, AHB, CBS-pair; CorC domain deleted), C-terminal His6-tag, E. coli C41(DE3), detergent-solubilized
# From the text: isothermal titration calorimetry on MtCorBΔC | MtCorBΔC has the highest affinity for ATP, followed by ADP and AMP
# MtCorBCBS = molecular target: T2, MtCorBCBS (Methanoculleus thermophilus, UniProt A0A1G8XA46); assay: isothermal titration calorimetry; also crystal structure […] Å; assay type: binding
# T2 construct: gene corB; CBS-pair domain, residues 199-322, GST-tag cut leaving N-terminal GPLGS, E. coli BL21(DE3); crystal 7MSU came from in situ cleavage of MtCorBΔC
# [1] = molecular target: the molecule itself; assay: crystal structure; MtCorBΔC_(Δloop) in 0.05% UDM with 5 mM ATP and 20 mM MgCl2; hanging drop, 0.1 M sodium citrate pH 5.5, 0.1 M Li2SO4, 0.1 M NaCl, 34% PEG400, 22 °C; 3.25 Å
# [2] = molecular target: the molecule itself; assay: crystal structure; MtCorBΔC R235L in 0.05% UDM, no ATP; hanging drop, 0.1 M sodium citrate pH 5.5, 50 mM Li2SO4, 11% PEG4000, 10 mM MgSO4, 22 °C; 3.8 Å
# [3] = molecular target: the molecule itself; assay: HDX-MS; MtCorB or MtCorBΔC in MSP1D1 nanodiscs, with and without Mg2+-ATP; exchange for 3, 30, 300 or 3000 s at 20 °C, 100 mM NaCl, 20 mM HEPES pH 7.5
molecule,measurement,setting,value
Nc1ncnc2c1ncn2[C@@H]1O[C@H](COP(=O)(O)OP(=O)(O)OP(=O)(O)O)[C@@H](O)[C@H]1O [ATP],Kd,MtCorBΔC,0.59 ± 0.06 µM
same,Kd,MtCorBCBS,0.53 ± 0.05 µM
Nc1ncnc2c1ncn2[C@@H]1O[C@H](COP(=O)(O)OP(=O)(O)O)[C@@H](O)[C@H]1O [ADP],Kd,MtCorBΔC,10.3 ± 1 µM
Nc1ncnc2c1ncn2[C@@H]1O[C@H](COP(=O)(O)O)[C@@H](O)[C@H]1O [AMP],Kd,MtCorBΔC,83 ± 17 µM
B1,binding result,[1],binds
B2,binding result,[2],binds
B3,binding result,[3],binds
B4,binding result,[3],binds
